Experimental data from the NIST ThermoML archive (doi:10.1021/je1012235).
Numbers after ± are expanded uncertainties.

Conditions: 101.33 kPa, Liquid; for mass density: Vibrating tube method

Structure (SMILES) | viscosity (323.15 K) | mass density (323.15 K) | viscosity (328.15 K) | mass density (328.15 K) | viscosity (333.15 K) | mass density (333.15 K) | viscosity (338.15 K) | mass density (338.15 K) | viscosity (343.15 K) | mass density (343.15 K) | viscosity (348.15 K) | mass density (348.15 K) | viscosity (353.15 K) | mass density (353.15 K) | viscosity (358.15 K) | mass density (358.15 K) | viscosity (363.15 K) | mass density (363.15 K) | viscosity (368.15 K) | mass density (368.15 K) | also measured
CCCCCC/C=C\CCCCCCCC(=O)OC [methyl (Z)-9-hexadecenoate] | 2.175 ± 0.031 mPa·s | 846.3 ± 1 kg/m3 | 2.03 ± 0.029 mPa·s | 842.5 ± 1 kg/m3 | 1.87 ± 0.027 mPa·s | 838.7 ± 1 kg/m3 | 1.728 ± 0.026 mPa·s | 834.9 ± 1 kg/m3 | 1.595 ± 0.024 mPa·s | 831.1 ± 1 kg/m3 | 1.482 ± 0.023 mPa·s | 827.3 ± 1 kg/m3 | 1.366 ± 0.021 mPa·s | 823.5 ± 1 kg/m3 | 1.29 ± 0.02 mPa·s | 819.8 ± 1 kg/m3 | 1.207 ± 0.019 mPa·s | 816 ± 1 kg/m3 | – | – | viscosity (278.15 K): 6.169 ± 0.081 mPa·s; mass density (278.15 K): 880.4 ± 1 kg/m3; viscosity (283.15 K): 5.367 ± 0.071 mPa·s; mass density (283.15 K): 876.6 ± 1 kg/m3; viscosity (288.15 K): 4.662 ± 0.062 mPa·s; mass density (288.15 K): 872.8 ± 1 kg/m3; viscosity (293.15 K): 4.107 ± 0.055 mPa·s; mass density (293.15 K): 869 ± 1 kg/m3; viscosity (298.15 K): 3.647 ± 0.049 mPa·s; mass density (298.15 K): 865.2 ± 1 kg/m3; viscosity (303.15 K): 3.289 ± 0.045 mPa·s; mass density (303.15 K): 861.4 ± 1 kg/m3; viscosity (308.15 K): 2.943 ± 0.041 mPa·s; mass density (308.15 K): 857.6 ± 1 kg/m3; viscosity (313.15 K): 2.616 ± 0.037 mPa·s; mass density (313.15 K): 853.8 ± 1 kg/m3; viscosity (318.15 K): 2.422 ± 0.034 mPa·s; mass density (318.15 K): 850 ± 1 kg/m3
CCCCC/C=C\C/C=C\CCCCCCCC(=O)OCC [ethyl linoleate] | 2.829 ± 0.039 mPa·s | 860.6 ± 1 kg/m3 | 2.641 ± 0.037 mPa·s | 856.9 ± 1 kg/m3 | 2.429 ± 0.034 mPa·s | 853.3 ± 1 kg/m3 | 2.241 ± 0.032 mPa·s | 849.7 ± 1 kg/m3 | 2.075 ± 0.03 mPa·s | 846 ± 1 kg/m3 | 1.927 ± 0.028 mPa·s | 842.4 ± 1 kg/m3 | 1.773 ± 0.026 mPa·s | 838.8 ± 1 kg/m3 | 1.676 ± 0.025 mPa·s | 835.2 ± 1 kg/m3 | 1.569 ± 0.024 mPa·s | 831.6 ± 1 kg/m3 | – | – | viscosity (278.15 K): 8.188 ± 0.11 mPa·s; mass density (278.15 K): 893.8 ± 1 kg/m3; viscosity (283.15 K): 7.084 ± 0.092 mPa·s; mass density (283.15 K): 890 ± 1 kg/m3; viscosity (288.15 K): 6.165 ± 0.081 mPa·s; mass density (288.15 K): 886.3 ± 1 kg/m3; viscosity (293.15 K): 5.423 ± 0.072 mPa·s; mass density (293.15 K): 882.6 ± 1 kg/m3; viscosity (298.15 K): 4.807 ± 0.064 mPa·s; mass density (298.15 K): 878.8 ± 1 kg/m3; viscosity (303.15 K): 4.307 ± 0.058 mPa·s; mass density (303.15 K): 875.2 ± 1 kg/m3; viscosity (308.15 K): 3.854 ± 0.052 mPa·s; mass density (308.15 K): 871.5 ± 1 kg/m3; viscosity (313.15 K): 3.406 ± 0.046 mPa·s; mass density (313.15 K): 867.8 ± 1 kg/m3; viscosity (318.15 K): 3.161 ± 0.043 mPa·s; mass density (318.15 K): 864.2 ± 1 kg/m3
CCCCCCCCCCCCCCCCCCCCCCCC(=O)OC [methyl tetracosanoate] | – | – | – | – | – | – | 5.139 ± 0.068 mPa·s | 830.5 ± 1 kg/m3 | 4.628 ± 0.062 mPa·s | 827.1 ± 1 kg/m3 | 4.189 ± 0.056 mPa·s | 823.7 ± 1 kg/m3 | 3.81 ± 0.051 mPa·s | 820.3 ± 1 kg/m3 | 3.48 ± 0.047 mPa·s | 816.9 ± 1 kg/m3 | 3.19 ± 0.044 mPa·s | 813.5 ± 1 kg/m3 | 2.933 ± 0.041 mPa·s | 810.1 ± 1 kg/m3 | viscosity (373.15 K): 2.707 ± 0.038 mPa·s; mass density (373.15 K): 806.8 ± 1 kg/m3
CCCCCCCCCCCCCCCCCCCC(=O)OC [methyl eicosanoate] | 4.832 ± 0.061 mPa·s | 842.3 ± 1 kg/m3 | 4.323 ± 0.055 mPa·s | 838.7 ± 1 kg/m3 | 3.889 ± 0.05 mPa·s | 834.9 ± 1 kg/m3 | 3.517 ± 0.045 mPa·s | 831.4 ± 1 kg/m3 | 3.196 ± 0.042 mPa·s | 827.8 ± 1 kg/m3 | 2.918 ± 0.038 mPa·s | 824.3 ± 1 kg/m3 | 2.674 ± 0.035 mPa·s | 820.8 ± 1 kg/m3 | 2.461 ± 0.033 mPa·s | 817.3 ± 1 kg/m3 | 2.273 ± 0.031 mPa·s | 813.8 ± 1 kg/m3 | 2.107 ± 0.029 mPa·s | 810.4 ± 1 kg/m3 | viscosity (373.15 K): 1.959 ± 0.027 mPa·s; mass density (373.15 K): 807 ± 1 kg/m3
CCCCCCCCCCCCCCCCCCCCCC(=O)OC [methyl docosanoate] | – | – | – | – | 4.749 ± 0.063 mPa·s | 834.5 ± 1 kg/m3 | 4.274 ± 0.057 mPa·s | 831 ± 1 kg/m3 | 3.866 ± 0.052 mPa·s | 827.5 ± 1 kg/m3 | 3.513 ± 0.048 mPa·s | 824.1 ± 1 kg/m3 | 3.207 ± 0.044 mPa·s | 820.6 ± 1 kg/m3 | 2.939 ± 0.041 mPa·s | 817.2 ± 1 kg/m3 | 2.709 ± 0.038 mPa·s | 813.7 ± 1 kg/m3 | 2.502 ± 0.035 mPa·s | 810.3 ± 1 kg/m3 | viscosity (373.15 K): 2.317 ± 0.033 mPa·s; mass density (373.15 K): 806.9 ± 1 kg/m3
CC/C=C\C/C=C\C/C=C\CCCCCCCC(=O)OCC [ethyl 9,12,15-octadecatrienoate] | 2.511 ± 0.035 mPa·s | 870.9 ± 1 kg/m3 | 2.32 ± 0.033 mPa·s | 867.2 ± 1 kg/m3 | 2.151 ± 0.031 mPa·s | 863.5 ± 1 kg/m3 | 2 ± 0.029 mPa·s | 859.9 ± 1 kg/m3 | 1.866 ± 0.027 mPa·s | 856.2 ± 1 kg/m3 | 1.745 ± 0.026 mPa·s | 852.5 ± 1 kg/m3 | 1.636 ± 0.025 mPa·s | 848.9 ± 1 kg/m3 | 1.538 ± 0.023 mPa·s | 845.3 ± 1 kg/m3 | 1.449 ± 0.022 mPa·s | 841.6 ± 1 kg/m3 | 1.368 ± 0.021 mPa·s | 838 ± 1 kg/m3 | viscosity (278.15 K): 6.282 ± 0.082 mPa·s; mass density (278.15 K): 904.6 ± 1 kg/m3; viscosity (283.15 K): 5.538 ± 0.073 mPa·s; mass density (283.15 K): 900.8 ± 1 kg/m3; viscosity (288.15 K): 4.921 ± 0.065 mPa·s; mass density (288.15 K): 897 ± 1 kg/m3; viscosity (293.15 K): 4.401 ± 0.059 mPa·s; mass density (293.15 K): 893.3 ± 1 kg/m3; viscosity (298.15 K): 3.961 ± 0.053 mPa·s; mass density (298.15 K): 889.5 ± 1 kg/m3; viscosity (303.15 K): 3.583 ± 0.049 mPa·s; mass density (303.15 K): 885.8 ± 1 kg/m3; viscosity (308.15 K): 3.258 ± 0.044 mPa·s; mass density (308.15 K): 882 ± 1 kg/m3; viscosity (313.15 K): 2.975 ± 0.041 mPa·s; mass density (313.15 K): 878.3 ± 1 kg/m3; viscosity (318.15 K): 2.728 ± 0.038 mPa·s; mass density (318.15 K): 874.6 ± 1 kg/m3; viscosity (373.15 K): 1.295 ± 0.02 mPa·s; mass density (373.15 K): 834.5 ± 1 kg/m3
